Measured values taken from patent US10968236B2, “TYK2 inhibitors and uses thereof” (Nimbus Lakshmi, Inc., priority 2015, dated 2021).
Where a name gives a salt, the structure may show the parent alone.

Assays:
TYK2 = TYK2 (Homo sapiens (Human), UniProt P29597); test: Tyk2 activity inhibition assay (radioactive kinase / Caliper assay); type: biochemical
Protocol: (§1) Peptide substrate, [KKSRGDYMTMQIG], (20 μM) is prepared in reaction buffer (20 mM Hepes pH 7.5, 10 mM MgCl2, 1 mM EGTA, 0.02% Brij35, 0.02 mg/mL BSA, 0.1 mM […], 2 mM DTT, 1% DMSO. TYK2 (Invitrogen) kinase is added, followed by compounds in DMSO. 33PATP is added to initiate the reaction in ATP at 10 μM. Kinase reaction is incubated for 120 min at room temp and reactions are spotted onto P81 ion exchange paper (Whatman #3698-915), and then washed extensively in 0.75% phosphoric acid, prior to reading the radioactivity counts. For JAK2 (Invitrogen) kinase assay the peptide substrate poly[Glu:Tyr] (4:1), 0.2 mg/ml is used, in the reaction carried out the same as for TYK2.
(§2) The caliper machine employs an off chip mobility shift assay to detect phosphorylated peptide substrates from kinase assays, using microfluidics technology. The assays are carried out at ATP concentration equivalent to the ATP Km, and at 1 mM ATP. Compounds are serially diluted in DMSO then further diluted in assay buffer (25 mM HEPES, pH 7.5, 0.01% Brij-35, 0.01% Triton, 0.5 mM EGTA). 5 ul of diluted compound was added into wells first, then 10 ul of enzyme mix was added into wells, followed by 10 uL of substrate mix (peptide and ATP in 10 mM MgCl2) to start reaction. Reaction was incubated at 28° C. for 25 min and then added 25 ul stop buffer (100 mM HEPES, 0.015% Brij-35, 50 mM EDTA), followed by reading with Caliper. JAK2 at 1 nM final concentration and TYK2 at 9.75 nM are from Carna, and substrates used are ATP at 20 and 16 uM, respectively. JAK2 assay uses peptide 22 and TYK2 uses peptide 30 (Caliper), each at 3 uM.
(§3) The compound numbers correspond to the compound numbers in Table 1. Compounds having an activity designated as “A” provided an Ki≤0.01 μM; compounds having an activity designated as “B” provided an Ki of 0.01-0.1 μM; compounds having an activity designated as “C” provided an Ki of 0.1-1.0 μM; and compounds having an activity designated as “D” provided an Ki≥1.0 μM.

JAK2 = JAK2 (Homo sapiens (Human), UniProt O60674); test: JAK2 activity inhibition assay (radioactive kinase / Caliper assay); type: biochemical
Protocol: as §1, §2, §3

[1] = test system: IL-12 induced pSTAT4 (Tyk2-pSTAT4); test: IL-12 Induced pSTAT4 in human PBMC; type: cell-based; settings: IL-12 1.7 ng/mL
Protocol: IL-12 Induced pSTAT4 in human PBMC. Human PBMC are isolated from buffy coat and are stored frozen for assays as needed. Cells for assay are thawed and resuspended in complete media containing serum, then cells are diluted to 1.67 E6 cells/ml so that 120 μl per well is 200,000 cells. 15 μl of compound or DMSO is added to the well at the desired concentrations and incubated at 1 hr at 37 C. 15 μl of stimulus (final concentration of 1.7 ng/mL IL-12) is added for 30 minutes prior to pSTAT4 and total STAT4 analysis using cell lysates prepared and analyzed by MSD reagents as per manufacturer protocol. The final DMSO concentration of compound in the assay is 0.1%.
(§4) The compound numbers correspond to the compound numbers in Table 1. Compounds having an activity designated as “A” provided an EC50≤2 μM; compounds having an activity designated as “B” provided a EC50 of 2-20 μM, and compounds having an activity designated as “C” provided an EC50>20 μM.

[2] = test system: GM-CSF induced pSTAT5 (JAK2-pSTAT5); test: GM-CSF Induced pSTAT5 in human PBMC; type: cell-based; settings: GM-CSF 5 ng/mL
Protocol: GM-CSF Induced pSTAT5 in human PBMC. Cells are prepared for analysis as in the above procedure and 15 μl of GM-CSF (final concentration 5 ng/mL) is added for 20 minutes prior to pSTAT5 and total STAT5 analysis using cell lysates prepared and analyzed by MSD reagents as per manufacturer protocol. The final DMSO concentration of compound in the assay is 0.1%.
as §4

Chain of JAK2 (O60674 whole entry): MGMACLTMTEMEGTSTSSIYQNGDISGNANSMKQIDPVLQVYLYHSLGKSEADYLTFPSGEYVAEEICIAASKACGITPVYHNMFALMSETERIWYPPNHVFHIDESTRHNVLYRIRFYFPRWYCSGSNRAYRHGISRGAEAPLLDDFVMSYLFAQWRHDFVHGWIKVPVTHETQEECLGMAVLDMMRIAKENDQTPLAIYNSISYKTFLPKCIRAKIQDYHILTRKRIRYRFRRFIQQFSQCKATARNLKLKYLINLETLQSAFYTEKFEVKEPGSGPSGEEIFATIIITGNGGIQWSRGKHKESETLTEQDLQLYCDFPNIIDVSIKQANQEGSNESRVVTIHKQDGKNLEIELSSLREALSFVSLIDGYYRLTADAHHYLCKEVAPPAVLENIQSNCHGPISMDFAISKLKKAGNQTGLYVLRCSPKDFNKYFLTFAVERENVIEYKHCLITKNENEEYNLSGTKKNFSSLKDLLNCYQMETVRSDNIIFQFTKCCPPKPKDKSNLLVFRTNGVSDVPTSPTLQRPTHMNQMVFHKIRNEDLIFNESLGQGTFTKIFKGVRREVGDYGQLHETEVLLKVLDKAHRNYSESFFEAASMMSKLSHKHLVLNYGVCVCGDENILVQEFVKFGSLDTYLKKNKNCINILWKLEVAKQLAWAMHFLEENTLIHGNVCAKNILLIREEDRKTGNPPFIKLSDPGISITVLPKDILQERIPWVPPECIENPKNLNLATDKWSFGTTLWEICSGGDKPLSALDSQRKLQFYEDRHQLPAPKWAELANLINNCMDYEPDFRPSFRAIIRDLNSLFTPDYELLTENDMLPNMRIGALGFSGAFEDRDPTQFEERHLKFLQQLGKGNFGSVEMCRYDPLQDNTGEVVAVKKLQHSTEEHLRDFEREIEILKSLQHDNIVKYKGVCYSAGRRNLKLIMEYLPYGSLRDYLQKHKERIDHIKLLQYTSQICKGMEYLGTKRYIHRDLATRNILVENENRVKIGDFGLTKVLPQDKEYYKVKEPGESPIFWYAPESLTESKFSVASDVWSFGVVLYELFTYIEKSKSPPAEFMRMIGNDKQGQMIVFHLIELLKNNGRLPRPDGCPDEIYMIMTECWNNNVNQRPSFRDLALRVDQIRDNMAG
Chain of TYK2 (P29597 whole entry): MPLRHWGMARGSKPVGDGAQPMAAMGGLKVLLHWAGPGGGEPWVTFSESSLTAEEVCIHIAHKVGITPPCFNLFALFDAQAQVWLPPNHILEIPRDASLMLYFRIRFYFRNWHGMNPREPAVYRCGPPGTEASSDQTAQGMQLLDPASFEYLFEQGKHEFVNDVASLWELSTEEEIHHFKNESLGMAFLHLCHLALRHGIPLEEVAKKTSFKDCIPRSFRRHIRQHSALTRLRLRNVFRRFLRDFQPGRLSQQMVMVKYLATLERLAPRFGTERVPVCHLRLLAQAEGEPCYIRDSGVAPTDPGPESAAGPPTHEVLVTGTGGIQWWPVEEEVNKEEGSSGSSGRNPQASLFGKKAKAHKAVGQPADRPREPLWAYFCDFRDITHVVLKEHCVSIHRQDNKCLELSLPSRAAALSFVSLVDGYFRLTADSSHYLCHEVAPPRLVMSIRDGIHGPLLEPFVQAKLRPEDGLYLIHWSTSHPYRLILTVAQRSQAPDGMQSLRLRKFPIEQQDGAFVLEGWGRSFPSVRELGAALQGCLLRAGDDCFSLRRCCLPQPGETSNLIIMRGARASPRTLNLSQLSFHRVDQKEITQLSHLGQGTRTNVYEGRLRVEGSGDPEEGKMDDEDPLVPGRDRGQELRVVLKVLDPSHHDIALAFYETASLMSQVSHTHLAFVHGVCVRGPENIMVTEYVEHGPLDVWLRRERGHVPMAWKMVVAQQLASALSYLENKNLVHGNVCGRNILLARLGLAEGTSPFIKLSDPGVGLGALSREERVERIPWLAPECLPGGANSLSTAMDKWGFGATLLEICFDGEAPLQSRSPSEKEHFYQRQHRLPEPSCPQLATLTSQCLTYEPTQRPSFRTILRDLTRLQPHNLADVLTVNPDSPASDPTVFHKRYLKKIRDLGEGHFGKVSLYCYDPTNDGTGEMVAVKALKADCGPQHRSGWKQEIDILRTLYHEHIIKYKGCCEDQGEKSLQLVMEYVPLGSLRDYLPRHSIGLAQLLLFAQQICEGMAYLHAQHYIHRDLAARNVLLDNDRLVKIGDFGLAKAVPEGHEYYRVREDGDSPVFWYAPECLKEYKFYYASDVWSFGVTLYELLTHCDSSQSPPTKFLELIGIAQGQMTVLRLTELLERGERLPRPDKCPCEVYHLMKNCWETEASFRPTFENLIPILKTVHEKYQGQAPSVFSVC

SMILES | Ki (TYK2) | Ki (JAK2) | EC50 [1] | EC50 [2]
N#Cc1cccc(F)c1-c1cc(Nc2ccc(N3CC[C@@]4(C[C@@H](O)CO4)C3)cn2)c2c(n1)CNC2=O [Compound I-88, 3-fluoro-2-(4-((5-((3R,5R)-3-hydroxy-1-oxa-7-azaspiro[4.4]nonan-7-yl)pyridin-2-yl)amino)-5-oxo-6,7-dihydro-5H-pyrrolo[3,4-b]pyridin-2-yl)benzonitrile] | ≤ 10 nM | ≤ 10 nM | ≤ 2000 nM | ≤ 2000 nM
CCNC(=O)C(C)(C)c1ccc(Nc2cc(-c3c(F)cccc3F)nc3c2C(=O)NC3)cc1 [Compound I-67, 2-(4-((2-(2,6-difluorophenyl)-5-oxo-6,7-dihydro-5H-pyrrolo[3,4-b]pyridin-4-yl)amino)phenyl)-N-ethyl-2-methylpropanamide] | ≤ 10 nM | ≤ 10 nM | ≤ 2000 nM | 2000 to 20000 nM
O=C1NCc2nc(-c3c(F)cccc3F)cc(Nc3ccc(N4CCC5(CCOC5)CC4)cn3)c21 [Compound I-52, 4-((5-(2-oxa-8-azaspiro[4.5]decan-8-yl)pyridin-2-yl)amino)-2-(2,6-difluorophenyl)-6,7-dihydro-5H-pyrrolo[3,4-b]pyridin-5-one] | ≤ 10 nM | ≤ 10 nM | ≤ 2000 nM | ≤ 2000 nM
C[C@](O)(c1ccc(Nc2nc(-c3c(F)cccc3F)nc3c2C(=O)NC3)cc1)C(F)(F)F [Compound I-34, (S)-2-(2,6-difluorophenyl)-4-((4-(1,1,1-trifluoro-2-hydroxy-propan-2-yl)phenyl)amino)-6,7-dihydro-5H-pyrrolo[3,4-d]pyrimidin-5-one] |  | 10 to 100 nM | ≤ 2000 nM | 2000 to 20000 nM
Nc1ccc2ccn(-c3cc(-c4c(F)cccc4F)nc4c3C(=O)NC4)c2n1 [Compound I-19, 4-(6-amino-1H-pyrrolo[2,3-b]pyridin-1-yl)-2-(2,6-difluorophenyl)-6,7-dihydro-5H-pyrrolo[3,4-b]pyridin-5-one] | 10 to 100 nM | ≥ 1000 nM |  | 
C[C@](O)(C(=O)O)c1ccc(Nc2nc(-c3c(F)cccc3F)nc3c2C(=O)NC3)cc1 [Compound I-8, (R)-2-(4-((2-(2,6-difluorophenyl)-5-oxo-6,7-dihydro-5H-pyrrolo[3,4-d]pyrimidin-4-yl)amino)phenyl)-2-hydroxypropanoic acid] | ≤ 10 nM | 100 to 1000 nM |  | 
O=C1NCc2nc(-c3c(F)cccc3F)cc(Nc3ccc(C(O)(C(F)(F)F)C(F)(F)F)cc3)c21 [Compound I-66, 2-(2,6-difluorophenyl)-4-((4-(1,1,1,3,3,3-hexafluoro-2-hydroxy-propan-2-yl)phenyl)amino)-6,7-dihydro-5H-pyrrolo[3,4-b]pyridin-5-one] | ≤ 10 nM | 10 to 100 nM |  | 
O=C1NCc2nc(-c3c(F)cccc3F)cc(Nc3ccc(C(=O)N4CCC5(CCCCO5)CC4)cc3)c21 [Compound I-54, 4-((4-(1-oxa-9-azaspiro[5.5]undecane-9-carbonyl)phenyl)amino)-2-(2,6-difluorophenyl)-6,7-dihydro-5H-pyrrolo[3,4-b]pyridin-5-one] | ≤ 10 nM | 10 to 100 nM |  | 
C[C@](N)(C(=O)O)c1ccc(Nc2nc(-c3c(F)cccc3F)nc3c2C(=O)NC3)cc1 [Compound I-46, (R)-2-amino-2-(4-((2-(2,6-difluorophenyl)-5-oxo-6,7-dihydro-5H-pyrrolo[3,4-d]pyrimidin-4-yl)amino)phenyl)propanoic acid hydro-chloride] | 10 to 100 nM | 100 to 1000 nM |  | 
CN1C(=O)C(C)(c2ccc(Nc3nc(-c4c(F)cccc4F)nc4c3C(=O)NC4)cc2)Oc2ccccc21 (centres unmarked) [Compound I-39, 2-(4-((2-(2,6-difluorophenyl)-5-oxo-6,7-dihydro-5H-pyrrolo[3,4-d]pyrimidin-4-yl)amino)phenyl)-2,4-dimethyl-2H-benzo[b][1,4]oxazin-3(4H)-one] | ≤ 10 nM | 100 to 1000 nM |  | 
C[C@@](N)(C(=O)O)c1ccc(Nc2nc(-c3c(F)cccc3F)nc3c2C(=O)NC3)cc1 [Compound I-45, (S)-2-amino-2-(4-((2-(2,6-difluorophenyl)-5-oxo-6,7-dihydro-5H-pyrrolo[3,4-d]pyrimidin-4-yl)amino)phenyl)propanoic acid hydrochloride] | ≤ 10 nM | 100 to 1000 nM |  | 

Results, then the molecule that gave them:

Ki (TYK2) | Ki (JAK2) | EC50 [1] | EC50 [2] | SMILES
≤ 10 nM | 10 to 100 nM | ≤ 2000 nM | 2000 to 20000 nM | O=C1NCc2nc(-c3c(F)cccc3F)cc(Nc3ccc(N4CCC5(CCO5)CC4)cn3)c21 [Compound I-25, 4-((5-(1-oxa-7-azaspiro[3.5]nonan-7-yl)pyridin-2-yl)amino)-2-(2,6-difluorophenyl)-6,7-dihydro-5H-pyrrolo[3,4-b]pyridin-5-one]
≤ 10 nM | 10 to 100 nM | ≤ 2000 nM | 2000 to 20000 nM | O=C1NCc2nc(-c3c(F)cccc3F)cc(Nc3ccc(N4C[C@H]5COC[C@H]5C4)cn3)c21 [Compound I-59, 2-(2,6-difluorophenyl)-4-((5-((3aR,6aS)-tetrahydro-1H-furo[3,4-c]pyrrol-5(3H)-yl)pyridin-2-yl)amino)-6,7-dihydro-5H-pyrrolo[3,4-b]pyridin-5-one]
≤ 10 nM | 10 to 100 nM | ≤ 2000 nM | ≤ 2000 nM | O=C1NCc2nc(-c3c(F)cccc3F)cc(Nc3ccc(N4CCC5(CC4)OCCO5)cn3)c21 [Compound I-62, 4-((5-(1,4-dioxa-8-azaspiro[4.5]decan-8-yl)pyridin-2-yl)amino)-2-(2,6-difluorophenyl)-6,7-dihydro-5H-pyrrolo[3,4-b]pyridin-5-one]
≤ 10 nM | 10 to 100 nM | ≤ 2000 nM | 2000 to 20000 nM | N#Cc1cccc(F)c1-c1cc(Nc2ccc(N3CCC4(C[C@H](O)CO4)C3)cn2)c2c(n1)CNC2=O (stereo in doubt) [Compound I-93, 3-fluoro-2-(4-((5-((3S,5R)-3-hydroxy-1-oxa-7-azaspiro[4.4]nonan-7-yl)pyridin-2-yl)amino)-5-oxo-6,7-dihydro-5H-pyrrolo[3,4-b]pyridin-2-yl)benzonitrile]
≤ 10 nM | 100 to 1000 nM |  |  | CC1(C)COc2cc(Nc3nc(-c4c(F)cccc4F)nc4c3C(=O)NC4)ccc21 [Compound I-23, 2-(2,6-difluorophenyl)-4-((3,3-dimethyl-2,3-dihydrobenzofuran-6-yl)amino)-6,7-dihydro-5H-pyrrolo[3,4-d]pyrimidin-5-one]
≤ 10 nM | 100 to 1000 nM |  |  | CC(O)(C(=O)O)c1ccc(Nc2nc(-c3c(F)cccc3F)nc3c2C(=O)NC3)cc1 (centres unmarked) [Compound I-6, 2-(4-((2-(2,6-difluorophenyl)-5-oxo-6,7-dihydro-5H-pyrrolo-[3,4-d]pyrimidin-4-yl)amino)phenyl)-2-hydroxypropanoic acid]
≤ 10 nM | 100 to 1000 nM |  |  | CCNC(=O)[C@](C)(O)c1ccc(Nc2nc(-c3c(F)cccc3F)nc3c2C(=O)NC3)cc1 [Compound I-16, (R)-2-(4-((2-(2,6-difluorophenyl)-5-oxo-6,7-dihydro-5H-pyrrolo[3,4-d]pyrimidin-4-yl)amino)phenyl)-N-ethyl-2-hydroxypropanamide]
10 to 100 nM | 100 to 1000 nM |  |  | COc1ccc(CNc2nc(-c3c(F)cccc3F)nc3c2C(=O)NC3)cc1 [Compound I-13, 2-(2,6-difluorophenyl)-4-((4-methoxybenzyl)-amino)-6,7-dihydro-5H-pyrrolo[3,4-d]pyrimidin-5-one]
